Reference: PubChem BioAssay AID256 (DTP/NCI, 2004)
Values joined by “and” are separate entries in the source; they are usually repeats but may differ in a detail not shown here. Identical values can stand only once. Inconclusive results and toxic doses are left out. Rule for the calls: active = survival T/C of 150% or more; inactive = T/C below 125% in these data.

Tested on: CD2F1 mice, L1210 leukemia ip, survival T/C
Assay: NCI In Vivo Anticancer Drug Screen. Data for tumor model L1210 Leukemia (intraperitoneal) in CD2F1 (CDF1) mice
Settings: higher = longer survival
Procedure, shortened: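 Implant tumor; dose compound or vehicle; measure endpoint in both groups; report treated divided by control.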

[1] = endpoint: mean survival time, dose: 100.0 mg/kg/injection, schedule: Q04DX003 (ip), vehicle: saline
[2] = endpoint: mean survival time, dose: 200.0 mg/kg/injection, schedule: Q04DX003 (ip), vehicle: saline
[3] = endpoint: mean survival time, dose: 400.0 mg/kg/injection, schedule: Q04DX003 (ip), vehicle: saline
[4] = endpoint: mean survival time, dose: 75.0 mg/kg/injection, schedule: Q04DX003 (ip), vehicle: saline with Tween-80
[5] = endpoint: mean survival time, dose: 150.0 mg/kg/injection, schedule: Q04DX003 (ip), vehicle: saline with Tween-80
[6] = endpoint: mean survival time, dose: 300.0 mg/kg/injection, schedule: Q04DX003 (ip), vehicle: saline with Tween-80
[7] = endpoint: mean survival time, dose: 100.0 mg/kg/injection, schedule: Q01DX009 (ip), vehicle: saline with Tween-80
[8] = endpoint: mean survival time, dose: 200.0 mg/kg/injection, schedule: Q01DX009 (ip), vehicle: saline with Tween-80
[9] = endpoint: mean survival time, dose: 400.0 mg/kg/injection, schedule: Q01DX009 (ip), vehicle: saline with Tween-80
[10] = endpoint: mean survival time, dose: 100.0 mg/kg/injection, schedule: Q01DX009 (ip), vehicle: saline
[11] = endpoint: mean survival time, dose: 200.0 mg/kg/injection, schedule: Q01DX009 (ip), vehicle: saline
[12] = endpoint: mean survival time, dose: 400.0 mg/kg/injection, schedule: Q01DX009 (ip), vehicle: saline

Measured: T/C

CC(=O)OC1CCC2C3CCC4(C)C(C(C)CCCC(C)C)CCC4C3CC(C)(O)C2C1 (stereo not given)
inactive: endpoint: mean survival time, dose: 100.0 mg/kg/injection, schedule: Q01DX001 (sc), vehicle: steriod suspending solution 101 % of control | endpoint: mean survival time, dose: 200.0 mg/kg/injection, schedule: Q01DX001 (sc), vehicle: steriod suspending solution 101 % of control | endpoint: mean survival time, dose: 400.0 mg/kg/injection, schedule: Q01DX001 (sc), vehicle: steriod suspending solution 101 % of control

CCC(C)(O)C(C)N(C)c1ccccc1 (stereo not given)
inactive: [1] 102 % of control and 97 % of control | [2] 102 % of control and 100 % of control | [3] 102 % of control and 106 % of control

C1Cn2nnnc2N1
inactive: [1] 103 % of control | [2] 103 % of control | [3] 94 % of control

CCN(C(=O)Nc1ccccc1)c1ccccc1
inactive: [4] 98 % of control | [5] 98 % of control | [6] 106 % of control

CC(C)(C)OC(=O)NC(CCC(=O)O)C(=O)OC(C)(C)C (stereo not given)
inactive: [7] 102 % of control | [8] 93 % of control | [9] 92 % of control

NC(=O)/C=C/C1=NCCC1
inactive: endpoint: mean survival time, dose: 7.5 mg/kg/injection, schedule: Q04DX003 (ip), vehicle: saline with Tween-80 97 % of control | endpoint: mean survival time, dose: 15.0 mg/kg/injection, schedule: Q04DX003 (ip), vehicle: saline with Tween-80 97 % of control | endpoint: mean survival time, dose: 30.0 mg/kg/injection, schedule: Q04DX003 (ip), vehicle: saline with Tween-80 102 % of control | [7] 100 % of control | [8] 103 % of control | [9] 103 % of control

CC(=O)On1nnc2ccccc2c1=O
inactive: endpoint: mean survival time, dose: 12.5 mg/kg/injection, schedule: Q01DX001 (ip), vehicle: distilled water + Tween-80 101 % of control | endpoint: mean survival time, dose: 25.0 mg/kg/injection, schedule: Q01DX001 (ip), vehicle: distilled water + Tween-80 100 % of control | endpoint: mean survival time, dose: 50.0 mg/kg/injection, schedule: Q01DX001 (ip), vehicle: distilled water + Tween-80 95 % of control | endpoint: mean survival time, dose: 100.0 mg/kg/injection, schedule: Q01DX001 (ip), vehicle: distilled water + Tween-80 90 % of control

CSCCCNC(=O)c1csc(CCNC(=O)c2ccccc2)n1
inactive: [7] 108 % of control | [8] 101 % of control | [9] 101 % of control

c1ccc(N/N=C(/CC/C(=N\Nc2ccccc2)c2ccccc2)c2ccccc2)cc1
inactive: endpoint: mean survival time, dose: 100.0 mg/kg/injection, schedule: Q01DX001 (ip), vehicle: saline with Tween-80 96 % of control | endpoint: mean survival time, dose: 200.0 mg/kg/injection, schedule: Q01DX001 (ip), vehicle: saline with Tween-80 96 % of control | endpoint: mean survival time, dose: 400.0 mg/kg/injection, schedule: Q01DX001 (ip), vehicle: saline with Tween-80 93 % of control

CCCCCCCCCCCC(=O)N(C)CCS(=O)(=O)O
inactive: [10] 103 % of control | [11] 101 % of control | [12] 109 % of control

COc1ccc2c(c1[N+](=O)[O-])CC[C@@H]1[C@@H]2CC[C@]2(C)C(=O)CC[C@@H]12
inactive: endpoint: median survival time, dose: 50.0 mg/kg/injection, schedule: Q01DX009 (ip), vehicle: saline with Tween-80 103 % of control | endpoint: median survival time, dose: 100.0 mg/kg/injection, schedule: Q01DX009 (ip), vehicle: saline with Tween-80 103 % of control | endpoint: median survival time, dose: 200.0 mg/kg/injection, schedule: Q01DX009 (ip), vehicle: saline with Tween-80 102 % of control | endpoint: median survival time, dose: 400.0 mg/kg/injection, schedule: Q01DX009 (ip), vehicle: saline with Tween-80 103 % of control | endpoint: median survival time, dose: 800.0 mg/kg/injection, schedule: Q01DX009 (ip), vehicle: saline with Tween-80 106 % of control

CCCCOC(=S)S.[Pt]
inactive: endpoint: mean survival time, dose: 18.75 mg/kg/injection, schedule: Q04DX003 (ip), vehicle: saline with Tween-80 101 % of control | endpoint: mean survival time, dose: 37.5 mg/kg/injection, schedule: Q04DX003 (ip), vehicle: saline with Tween-80 93 % of control | [4] 101 % of control | [5] 101 % of control | [6] 97 % of control

CN(C)c1ccc2c(SCC(=O)OCC(=O)[C@@]3(O)CC[C@H]4[C@@H]5CCC6=CC(=O)C=C[C@]6(C)[C@H]5C(=O)C[C@@]43C)c3ccc(N(C)C)cc3nc2c1
inactive: endpoint: median survival time, dose: 25.0 mg/kg/injection, schedule: Q01DX009 (ip), vehicle: Klucel (hydroxypropylcellulose) (HPC) 117 % of control and 105 % of control | endpoint: median survival time, dose: 50.0 mg/kg/injection, schedule: Q01DX009 (ip), vehicle: Klucel (hydroxypropylcellulose) (HPC) 114 % of control and 116 % of control and 108 % of control | endpoint: median survival time, dose: 100.0 mg/kg/injection, schedule: Q01DX009 (ip), vehicle: Klucel (hydroxypropylcellulose) (HPC) 116 % of control and 118 % of control and 123 % of control | endpoint: median survival time, dose: 200.0 mg/kg/injection, schedule: Q01DX009 (ip), vehicle: Klucel (hydroxypropylcellulose) (HPC) 108 % of control | endpoint: median survival time, dose: 400.0 mg/kg/injection, schedule: Q01DX009 (ip), vehicle: Klucel (hydroxypropylcellulose) (HPC) 123 % of control

CCOC(=O)C=C(c1ccc(OC)c(OC)c1)c1ccc(OC)c(OC)c1
inactive: endpoint: mean survival time, dose: 100.0 mg/kg/injection, schedule: Q01DX001 (ip), vehicle: saline 108 % of control | endpoint: mean survival time, dose: 200.0 mg/kg/injection, schedule: Q01DX001 (ip), vehicle: saline 100 % of control | endpoint: mean survival time, dose: 400.0 mg/kg/injection, schedule: Q01DX001 (ip), vehicle: saline 102 % of control

Cc1ccc(C(=O)Nc2ccc(S(=O)(=O)O)c3cc(S(=O)(=O)O)cc(S(=O)(=O)O)c23)cc1NC(=O)c1cccc(NC(=O)Nc2cccc(C(=O)Nc3cc(C(=O)Nc4ccc(S(=O)(=O)O)c5cc(S(=O)(=O)O)cc(S(=O)(=O)O)c45)ccc3C)c2)c1
inactive: endpoint: median survival time, dose: 12.5 mg/kg/injection, schedule: Q01DX005 (ip), vehicle: saline 101 % of control | endpoint: median survival time, dose: 25.0 mg/kg/injection, schedule: Q01DX005 (ip), vehicle: saline 101 % of control | endpoint: median survival time, dose: 50.0 mg/kg/injection, schedule: Q01DX005 (ip), vehicle: saline 116 % of control

Oc1ccccc1N=Cc1ccccc1
inactive: [1] 102 % of control | [2] 100 % of control | [3] 101 % of control

Nc1cccc(C(=O)O)c1
inactive: endpoint: mean survival time, dose: 100.0 mg/kg/injection, schedule: Q04DX003 (ip), vehicle: saline with Tween-80 95 % of control | endpoint: mean survival time, dose: 200.0 mg/kg/injection, schedule: Q04DX003 (ip), vehicle: saline with Tween-80 94 % of control | endpoint: mean survival time, dose: 400.0 mg/kg/injection, schedule: Q04DX003 (ip), vehicle: saline with Tween-80 94 % of control

N#CCCN1CCOCC1
inactive: [10] 95 % of control | [1] 92 % of control | [11] 93 % of control | [2] 103 % of control | [12] 101 % of control | [3] 103 % of control

COc1ccc(C(OC/C=C(\C)CCC=C(C)C)OC/C=C(\C)CCC=C(C)C)cc1
inactive: endpoint: mean survival time, dose: 12.5 mg/kg/injection, schedule: Q01DX009 (ip), vehicle: other 90 % of control | endpoint: mean survival time, dose: 25.0 mg/kg/injection, schedule: Q01DX009 (ip), vehicle: other 90 % of control | endpoint: mean survival time, dose: 50.0 mg/kg/injection, schedule: Q01DX009 (ip), vehicle: other 90 % of control | endpoint: mean survival time, dose: 100.0 mg/kg/injection, schedule: Q01DX009 (ip), vehicle: other 95 % of control | endpoint: mean survival time, dose: 200.0 mg/kg/injection, schedule: Q01DX009 (ip), vehicle: other 95 % of control

O=C1NCCCS1(=O)=O
inactive: endpoint: mean survival time, dose: 75.0 mg/kg/injection, schedule: Q01DX001 (ip), vehicle: saline 108 % of control

Cc1ccc(Cl)cc1NC(=O)Nc1nccs1
inactive: endpoint: mean survival time, dose: 50.0 mg/kg/injection, schedule: Q01DX009 (ip), vehicle: Klucel (hydroxypropylcellulose) (HPC) 91 % of control | endpoint: mean survival time, dose: 100.0 mg/kg/injection, schedule: Q01DX009 (ip), vehicle: Klucel (hydroxypropylcellulose) (HPC) 91 % of control | endpoint: mean survival time, dose: 200.0 mg/kg/injection, schedule: Q01DX009 (ip), vehicle: Klucel (hydroxypropylcellulose) (HPC) 102 % of control

ClI(Cl)c1ccccc1
inactive: [7] 98 % of control

C[n+]1csc(=S)[nH]1
inactive: [1] 105 % of control | [2] 109 % of control | [3] 114 % of control
